Data on one compound can be found in US11649440B2, “Thermostabilized Amadoriases and uses thereof” (FONDAZIONE ISTITUTO ITALIANO DI TECNOLOGIA, priority 2017, dated 2023).

Experiment [1] has as its target T1, Aspergillus fumigatus Amadoriase I variant SS03 (Ser67Cys + Pro121Cys), SEQ ID NO: 4 (Aspergillus fumigatus, UniProt O42629, P121C/S67C).
T1 construct: E. coli codon-optimised gene in bacterial (Novagen, pET-type) vector
The experiment can be described thus: Steady-state kinetics of Amadoriase variant SS03 towards fructosyl-lysine (glucosone formation at 322 nm). The format is biochemical. The following applies: apparent, fructosyl-lysine 0.05 mM to 2 mM, 10 mM Tris HCl pH 7.4, 20 mM o-Phenylenediamine, three independent experiments. Here is the method:
(§1) Enzymatic activity was followed by a continuous assay that detects glucosone formation over time from fructosyl-lysine at 322 nm. The 200 μl reaction mixture contained 10 mM Tris HCl pH 7.4, 20 mM o-Phenylenediamine, 2 mM fructosyl-lysine. After 1 minute of pre-incubation, the reaction was started adding 4.5 μg of enzyme, and the increase in absorbance at 322 nm (glucosone ε322=149.25 M^−1cm^−1) was monitored in a Spark10M (Tecan).
(§2) Apparent steady-state parameters for the enzymes over its natural substrate were determined by means of the assay described above, with fructosyl-lysine concentrations varied from 0.05 mM to 2 mM. Data points were obtained from three independent experiments. Kinetic parameters were calculated using a non-linear least-square fit of the data, and fitted with Eq. 1 (the Michaelis-Menten equation for hyperbolic substrate kinetics) using Hyperbola fit function of GraphPad Prism version 5.00 for Windows, GraphPad Software, La Jolla Calif. USA.
(§3) [formula] in which v, Vmax, S, and Km represent the steady state reaction rate, maximum reaction rate, substrate concentration, and Michaelis-Menten constant for the substrate, respectively.

For experiment [2], the target named is T2, Aspergillus fumigatus Amadoriase I variant SS17 (Asp295Cys + Lys303Cys), SEQ ID NO: 6 (Aspergillus fumigatus, UniProt O42629, D295C/K303C).
T2 construct: E. coli codon-optimised gene in bacterial (Novagen, pET-type) vector
The experiment is described as follows: Steady-state kinetics of Amadoriase variant SS17 towards fructosyl-lysine (glucosone formation at 322 nm). The experiment is classed as biochemical. The following applies: apparent, fructosyl-lysine 0.05 mM to 2 mM, 10 mM Tris HCl pH 7.4, 20 mM o-Phenylenediamine, three independent experiments. Here is the method: as §1, §2, §3

`N[C@@H](CCCCNCC(=O)[C@@H](O)[C@H](O)[C@H](O)CO)C(=O)O` [fructosyl-lysine]: in experiment [1], the kcat came out at 21.90 ± 2.73 s⁻¹ and the kcat/Km was 64170 ± 25500 M⁻¹ s⁻¹. Besides, in experiment [2], the kcat came to 22.91 ± 2.12 s⁻¹ and the kcat/Km was determined as 33340 ± 10160 M⁻¹ s⁻¹.

For orientation: kcat means the number of substrate molecules converted per active site and unit of time at saturation. As a reminder, the kcat/Km is the second-order rate constant that governs catalysis at low substrate concentration.
